We go through 101 compounds from PubChem BioAssay AID2842 (Southern Research Institute, 2010).

Molecules are shown by their SMILES. In brackets after ≈: the same amount, converted by molar mass.

The experiment has as its system M. tuberculosis H37Rv growth inhibition. Kind of experiment: Mycobacterium tuberculosis H37Rv growth inhibition, putative kinase inhibitor library, confirmatory dose response (AID 2842).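 Also: bacteria incubated one week before Alamar blue readout.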

As usually defined, the IC90 is the point of the concentration-response curve where the effect stands at 90%. For the compound `O=C(Nc1nnc(-c2ccc(F)cc2)o1)c1cccc(C(F)(F)F)c1`, the IC90 was 11.7 µg/mL (≈ 33.4 µM).
With `Cc1cc(C)c2nc(NNC(=O)c3cc(-c4cccs4)nc4ccccc34)sc2c1`, the IC90 was 24.6 µg/mL (≈ 57.2 µM).
The value for `CC(C)C(=O)Nc1nnc(-c2ccccc2)o1` was 3.31 µg/mL (≈ 14.3 µM); that for `O=C(Cc1ccc(-c2ccccc2)cc1)Nc1nnc2n1CCS2` was 13.5 µg/mL (≈ 40.2 µM).
The value for `CCc1ccc(-c2nnc3c4cc(OC)c(OC)cc4n(Cc4ccccc4F)cc2-3)cc1` was 8.11 µg/mL (≈ 18.4 µM).
Next, `Cc1ccc(-c2nnc(NC(=O)Cc3ccccc3)o2)c(C)c1`: 14.8 µg/mL (≈ 48.1 µM); `O=C(Nc1nc(-c2cccs2)c(C(=O)C(F)(F)F)s1)c1cc(-c2ccccc2)nc2ccccc12`: 24.4 µg/mL (≈ 47.9 µM); `Cc1ccc(C)c(-c2nnc(NC(=O)c3ccc(S(=O)(=O)N(C)C4CCCCC4)cc3)o2)c1`: 58.3 µg/mL (≈ 124 µM).
Regarding `O=C(Nc1nnc(-c2cc(Cl)ccc2Cl)o1)c1ccccc1Cl`, the IC90 was 1.66 µg/mL (≈ 4.5 µM).
For the compound `Cc1ccc(-c2nnc3c4cc5c(cc4n(Cc4cccc(C)c4)cc2-3)OCCO5)cc1`, the concentration for an effect of 90% (IC90) is 5.76 µg/mL (≈ 13.7 µM).
Next, `CCN(C1CCCCC1)S(=O)(=O)c1ccc(C(=O)Nc2nnc(-c3ccc(F)cc3)o2)cc1`: 5.64 µg/mL (≈ 11.9 µM); `C/C(=N\Nc1nc(=O)[nH]nc1C)c1ccccc1O`: below 0.2 µg/mL; `CCC(CO)Nc1ncnc2c1cnn2-c1ccc(Cl)c(Cl)c1` (stereo unspecified): 14.2 µg/mL (≈ 40.5 µM).
The value for `Cc1cccc(Cn2cc3c(-c4ccc(C)c(C)c4)nnc-3c3cc4c(cc32)OCCO4)c1` was 3.47 µg/mL (≈ 7.97 µM); that for `Cc1ccc(-n2ncc3c(NNC(=O)c4ccc(Cl)cc4Cl)ncnc32)cc1` was 11.9 µg/mL (≈ 28.7 µM); that for `CCOC(=O)CNC(=O)CSc1ncnc2c1nnn2Cc1ccccc1F` was 3.38 µg/mL (≈ 8.36 µM).
Regarding `O=C(OCc1ccco1)c1cc2cc(Br)ccc2oc1=O`, the IC90 was 16.3 µg/mL (≈ 46.7 µM).
As for `CN(c1ccccc1)S(=O)(=O)c1ccc(C(=O)Nc2nnc(-c3ccco3)o2)cc1`, the IC90 was 8.33 µg/mL (≈ 19.6 µM).
On to `COc1ccc2nc(Nc3nc4c(F)cccc4s3)sc2c1`, for which the IC90 is 23.4 µg/mL (≈ 70.8 µM).
On to `Cc1ccc(-c2nnc(NC(=O)c3ccco3)o2)c(C)c1`, for which the IC90 was 4.51 µg/mL (≈ 15.9 µM).
In the case of `CCCCC(=O)Nc1nnc(-c2ccc(Cl)s2)o1`, the IC90 is 3.23 µg/mL (≈ 11.3 µM).
On to `NC(=O)c1c(NC(=O)/C=C/c2ccc([N+](=O)[O-])s2)sc2c1CCCC2`, for which the IC90 was 4.6 µg/mL (≈ 12.2 µM).
As for `Cc1ccccc1C(=O)Nc1nnc(-c2cccnc2)o1`, the IC90 is 50.1 µg/mL (≈ 179 µM).
The value for `Fc1cccc2sc(Nc3nnc(-c4ccccc4)o3)nc12` was 9.14 µg/mL (≈ 29.3 µM); that for `COc1ccc2nc(Nc3nc4c(s3)CCCC4)sc2c1` was 20.7 µg/mL (≈ 65.1 µM).
On to `CCN1CCc2c(sc(NC(=O)c3sc4ccccc4c3Cl)c2C(N)=O)C1`, for which the IC90 was 10.6 µg/mL (≈ 25.2 µM).
As for `COc1ccc(C)c2sc(N(CCCn3ccnc3)C(=O)Cc3ccccc3)nc12`, the IC90 is 21.1 µg/mL (≈ 50.3 µM).
On to `COc1ccc(Cl)c2sc(N(CCCn3ccnc3)C(=O)Cc3ccccc3)nc12`, for which the IC90 was 1.65 µg/mL (≈ 3.74 µM).
The value for `O=C(c1cccs1)N(CCCn1ccnc1)c1nc2ccccc2s1` was 6 µg/mL (≈ 16.3 µM); that for `Cc1cc2cc(CNC(=O)C(=O)c3c[nH]c4ccccc34)ccc2[nH]1` was 8.44 µg/mL (≈ 25.5 µM); that for `O=C(Nc1nnc(-c2ccc3c(c2)CCCC3)o1)c1ccc([N+](=O)[O-])s1` was 0.68 µg/mL (≈ 1.84 µM).
Regarding `CCOc1ccc2nc(N(CCCn3ccnc3)C(=O)Cc3ccc(F)cc3)sc2c1`, the IC90 was 3.05 µg/mL (≈ 6.96 µM).
Regarding `O=C(Cc1ccc(F)cc1)N(CCCn1ccnc1)c1nc2ccc(F)cc2s1`, the IC90 was 3.39 µg/mL (≈ 8.22 µM).
With `Cc1ccc(C)c(N2CCN(C(=O)CCCCCn3c(=O)[nH]c4ccsc4c3=O)CC2)c1`, the IC90 is 10.9 µg/mL (≈ 24 µM).
Regarding `CCOC(=O)C(C)Sc1ncnc2c1nnn2Cc1ccc(F)cc1` (stereo unspecified), the 90% effect concentration (IC90) is 0.51 µg/mL (≈ 1.41 µM).
The value for `Cc1cc(NC(=O)CSc2nnc(-c3ccncc3)o2)no1` was 7.04 µg/mL (≈ 22.2 µM); that for `Cc1ccc(Nc2nc(N3CCCC3)nc3nccnc23)cc1C` was 3.21 µg/mL (≈ 10 µM).
For `COc1ccc(C)c2sc(NNC(=O)c3ccccc3)nc12`, the IC90 was 4.03 µg/mL (≈ 12.9 µM).
Next, `O=C(Nc1nnc(-c2ccc3c(c2)OCCO3)o1)C1CC1`: 33.9 µg/mL (≈ 118 µM); `O=C(c1cccs1)N(CCCn1ccnc1)c1nc2c(F)cc(F)cc2s1`: 2.38 µg/mL (≈ 5.88 µM).
The value for `CN1C(=O)c2cccc(NC(=O)c3ccc([N+](=O)[O-])s3)c2C1=O` was 25.1 µg/mL (≈ 75.7 µM).
Next, `O=C1N/C(=N\N=C\c2ccccc2O)SC1Cc1cc(Cl)ccc1Cl` (stereo unspecified): 4.52 µg/mL (≈ 11.5 µM); `COc1ccccc1-c1nnc(Nc2nc3c(F)cccc3s2)o1`: 3.16 µg/mL (≈ 9.23 µM).
On to `Clc1ccc(Cn2nnc3c(SCc4cccnc4)ncnc32)cc1`, for which the IC90 was 13.4 µg/mL (≈ 36.3 µM).
For the compound `CC(=O)Nc1nnc(-c2ccc(C)cc2C)o1`, the IC90 was 23.9 µg/mL (≈ 103 µM).
Take `CCCCCOc1ccc(C(=O)Nc2nnc(-c3ccccn3)o2)cc1`: the IC90 was 2.15 µg/mL (≈ 6.1 µM).
Next, `CC(C)(C)C(=O)Nc1nnc(C2=COCCO2)o1`: 48.6 µg/mL (≈ 192 µM).
On to `COC(=O)c1c(NC(=O)c2ccc3c(c2)CCCC3)sc2c1CCN(C(C)=O)C2`, for which the IC90 was 6.21 µg/mL (≈ 15.1 µM).
The value for `Cc1ccc(C(=O)Nc2cccc(-c3ccc4nnc(C)n4n3)c2)cc1C` was 12.9 µg/mL (≈ 36 µM).
As to `CCCCC(=O)Nc1nnc(-c2ccc3c(c2)CCCC3)o1`, the IC90 was 3.04 µg/mL (≈ 10.2 µM).
Next, `CC(C)N1CCc2c(sc(NC(=O)c3nc4ccccc4s3)c2C(N)=O)C1`: 12.9 µg/mL (≈ 32.3 µM); `CCc1cccc2sc(N(CCCn3ccnc3)C(=O)/C=C/c3cccs3)nc12`: 0.83 µg/mL (≈ 1.96 µM).
In the case of `Cc1cc(C)c2sc(N3CCCC3)nc2c1`, the IC90 is 1.75 µg/mL (≈ 7.53 µM).
Regarding `O=C(NCCSc1c[nH]c2ccccc12)Nc1c[nH]c2ccccc12`, the IC90 is 10.2 µg/mL (≈ 29.1 µM).
Next, `Fc1cccc2sc(Nc3nnc(-c4ccccc4Cl)o3)nc12`: 16.8 µg/mL (≈ 48.3 µM); `O=C(CSc1nnc(-c2cccnc2)o1)N1CCC(Cc2ccccc2)CC1`: 0.87 µg/mL (≈ 2.21 µM).
Take `O=C(/C=C/c1ccc(-c2ccccc2[N+](=O)[O-])o1)c1cccs1`: the IC90 was 13 µg/mL (≈ 39.9 µM).
Next, `O=C(Nc1nnc(C2=COCCO2)o1)c1cccc(Cl)c1`: 3.49 µg/mL (≈ 11.3 µM); `COc1ccccc1Nc1nc(NCc2ccco2)c2ccccc2n1`: 5.62 µg/mL (≈ 16.2 µM).
Take `COc1cc(/C=C(\C#N)c2nc(-c3ccc(C)cc3)cs2)cc([N+](=O)[O-])c1O`: the IC90 was 3.26 µg/mL (≈ 8.29 µM).
Next, `Cc1ccc(-c2nnc(NC(=O)c3c(F)cccc3F)o2)c(C)c1`: 1.25 µg/mL (≈ 3.8 µM); `O=C(Nc1nnc(C2=COCCO2)o1)c1cc(Cl)sc1Cl`: 34.1 µg/mL (≈ 98 µM).
The value for `COc1ccccc1-c1nnc(NC(=O)Cc2ccc(SC)cc2)o1` was 52.6 µg/mL (≈ 148 µM).
`COc1ccccc1-c1nnc(NC(=O)c2ccc3c(c2)CCCC3)o1`: the IC90 is 8.04 µg/mL (≈ 23 µM).
On to `Cc1nc2ccccc2c(=O)n1-c1cccc(NC(=O)c2cc([N+](=O)[O-])cc([N+](=O)[O-])c2)c1`, for which the concentration for an effect of 90% (IC90) was 27.8 µg/mL (≈ 62.5 µM).
Next, `O=C(Nc1nnc(-c2ccc(Br)cc2)o1)c1ccccc1F`: 4.4 µg/mL (≈ 12.1 µM).
`CC(=O)OCn1nnc2ccccc2c1=O`: the IC90 is 3.33 µg/mL (≈ 15.2 µM).
The value for `COc1ccc2sc(Nc3nc(-c4ccccn4)cs3)nc2c1` was 1.59 µg/mL (≈ 4.67 µM); that for `Cc1ccc(Nc2nc(N3CCN(c4ccccc4)CC3)nc3nccnc23)cc1C` was 32 µg/mL (≈ 77.7 µM).
Next, `Cc1ccc2nc(NNC(=O)c3nc4ccccc4s3)sc2c1`: 6.73 µg/mL (≈ 19.8 µM).
Take `O=C(NCCCSc1nc2ccccc2o1)Nc1ncccn1`: the IC90 is 25.1 µg/mL (≈ 76.1 µM).
Next, `Cc1c(Cl)ccc2sc(N(CCCn3ccnc3)C(=O)COc3ccccc3)nc12`: 3.05 µg/mL (≈ 6.92 µM); `Fc1ccc(Nc2nc(Nc3cccc(F)c3)nc3nccnc23)cc1`: 60.6 µg/mL (≈ 173 µM); `O=C(Nc1nnc(-c2ccc(F)cc2)o1)c1ccc2c(c1)CCCC2`: 8.65 µg/mL (≈ 25.6 µM).
Turning to `Cc1ccc(C)c(-c2nnc(NC(=O)Cc3ccccc3)o2)c1`, the 90% effect concentration (IC90) is 18.2 µg/mL (≈ 59.4 µM).
For the compound `Cc1ccc(C)c(-c2nnc(NC(=O)c3ccccc3C)o2)c1`, the IC90 is 2.48 µg/mL (≈ 8.07 µM).
The value for `CCC(=O)Nc1nnc(-c2ccc(C)cc2C)o1` was below 0.2 µg/mL; that for `O=C(Nc1nnc(-c2ccc(Cl)s2)o1)C1CC1` was 26.8 µg/mL (≈ 99.3 µM); that for `Cc1cc(C)c2nc(NNC(=O)c3nc4ccccc4s3)sc2c1` was 4.23 µg/mL (≈ 11.9 µM).
The value for `O=C(CCc1ccccc1)Nc1nnc(-c2cccs2)o1` was 42.8 µg/mL (≈ 143 µM); that for `O=C(Nc1nnc(-c2ccc3c(c2)OCCO3)o1)c1ccccc1Br` was 12.6 µg/mL (≈ 31.4 µM).
Next, `O=C(Nc1nnc(-c2cc(Cl)ccc2Cl)o1)c1cc(-c2ccccc2)nc2ccccc12`: 1.96 µg/mL (≈ 4.25 µM).
As for `Cc1ccc(-c2nnc(NC(=O)c3ccc(Cl)s3)o2)c(C)c1`, the IC90 was 2.01 µg/mL (≈ 6.02 µM).
For `COc1ccc(-c2nnc3c4cc(OC)c(OC)cc4n(Cc4ccccc4)cc2-3)cc1`, the IC90 is 11 µg/mL (≈ 25.8 µM).
With `Cc1ccc(C)c(-c2nnc(NC(=O)c3ccccc3Cl)o2)c1`, the IC90 is 3.12 µg/mL (≈ 9.52 µM).
Next, `O=C(Nc1nnc(-c2ccc(F)cc2)o1)c1ccc(Br)s1`: below 0.2 µg/mL; `O=C1NC(=S)NC(=O)C1=Cc1nc(-c2ccccc2Cl)n2ccccc12`: 10.8 µg/mL (≈ 28.2 µM); `CC(C)COc1ccc(S(=O)(=O)Nc2ccc3c(c2)C(=O)Nc2ccccc2O3)cc1`: 6.99 µg/mL (≈ 15.9 µM).
For `O=C(CSc1c[nH]c2ccccc12)Nc1ccc(Br)cc1`, the IC90 is 3.2 µg/mL (≈ 8.86 µM).
Turning to `Fc1cccc2sc(Nc3nc4cc5c(cc4s3)OCO5)nc12`, the IC90 was 11.1 µg/mL (≈ 32.1 µM).
Next, `Cc1ccc(-c2nnc(NC(=O)c3ccccc3Br)o2)c(C)c1`: 0.27 µg/mL (≈ 0.725 µM); `COc1cccc(NCCCn2c(C)cn3c4c(=O)[nH]c(=O)n(C)c4nc23)c1`: 46.2 µg/mL (≈ 121 µM).
`COc1ccc(CCNc2cnnc(NCCc3ccc(OC)cc3)n2)cc1`: the IC90 is 24.5 µg/mL (≈ 64.6 µM).
Turning to `CN(C)S(=O)(=O)c1ccc(C(=O)N2CC(=O)Nc3ccc(Br)cc3C2c2ccccc2)cc1` (stereo unspecified), the IC90 was 35.3 µg/mL (≈ 66.8 µM).
For `COC(=O)c1c2c(n3ccc(C)cc13)C(=O)c1ccccc1C2=O`, the IC90 was 0.35 µg/mL (≈ 1.1 µM).
Take `CCOC(=O)/C=C/CSc1nc2sc3c(c2c(=O)[nH]1)CCCC3`: the IC90 is 12.8 µg/mL (≈ 36.6 µM).
Next, `O=C(c1cccs1)N(CCCn1ccnc1)c1nc2c(Cl)cccc2s1`: 5.18 µg/mL (≈ 12.9 µM); `COc1cccc(C(=O)N(CCCn2ccnc2)c2nc3ccc(C)cc3s2)c1OC`: 2.63 µg/mL (≈ 6.02 µM); `CCOC(=O)c1ccc(NC(=O)CSc2ccc(F)cc2)cc1`: 5.47 µg/mL (≈ 16.4 µM).
The value for `CCc1cccc2sc(N(CCCn3ccnc3)C(=O)c3cc(OC)cc(OC)c3)nc12` was 10.7 µg/mL (≈ 23.7 µM); that for `O=C(Nc1nnc(-c2ccc(Cl)cc2)o1)c1ccc([N+](=O)[O-])o1` was 0.26 µg/mL (≈ 0.777 µM).
